Assay results taken from ChEMBL document CHEMBL1201862, “PubChem BioAssay data set” (2004).
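In this assay, cells in 96-well plates receive the compound at five concentrations for 48 hours. Endpoints are linearly interpolated between the surrounding concentrations. GI50 marks 50% less growth.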 Active and inactive are the calls of the source. No stated cut-off is given here; in the data, active = GI50 up to about 1.1 µM and inactive = higher.

Legend:
Assay in all cases: NCI anticancer screen, dose series, 48 h
NCI-H460 = system: NCI-H460
A498 = system: A498
OVCAR-4 = system: OVCAR-4
UACC-62 = system: UACC-62
CAKI-1 = system: CAKI-1
U-251 = system: U-251
ACHN = system: ACHN
IGROV-1 = system: IGROV-1
HOP-92 = system: HOP-92
NCI-H226 = system: NCI-H226
HCC 2998 = system: HCC 2998
XF498 = system: XF498
UO-31 = system: UO-31
K562 = system: K562
TK-10 = system: TK-10
OVCAR-5 = system: OVCAR-5
DMS-273 = system: DMS-273
HOP-62 = system: HOP-62
HT-29 = system: HT-29
786-0 = system: 786-0
MOLT-4 = system: MOLT-4
EKVX = system: EKVX
OVCAR-8 = system: OVCAR-8
SF-268 = system: SF-268
SNB-19 = system: SNB-19
SW-620 = system: SW-620
M19-MEL = system: M19-MEL
HCT-15 = system: HCT-15
SK-MEL-5 = system: SK-MEL-5
SR = system: SR
SK-OV-3 = system: SK-OV-3
Malme-3M = system: Malme-3M
M14 = system: M14
KM12 = system: KM12
OVCAR-3 = system: OVCAR-3
CCRF-CEM = system: CCRF-CEM
SNB-75 = system: SNB-75
SF-539 = system: SF-539
NCI-H522 = system: NCI-H522
SK-MEL-28 = system: SK-MEL-28
SNB-78 = system: SNB-78
KM-20L2 = system: KM-20L2
LXFL 529 = system: LXFL 529
SF-295 = system: SF-295
A549 = system: A549
SN12C = system: SN12C
COLO 205 = system: COLO 205
NCI-H23 = system: NCI-H23
RXF 631 = system: RXF 631
UACC-257 = system: UACC-257
HL-60 = system: HL-60
HCT-116 = system: HCT-116
RPMI-8226 = system: RPMI-8226
HOP-18 = system: HOP-18
DLD-1 = system: DLD-1
LOX IMVI = system: LOX IMVI
RXF 393 = system: RXF 393
DMS-114 = system: DMS-114
SK-MEL-2 = system: SK-MEL-2

Measured: GI50

CCCCCCCCCCCCCCCCCCCCCCC(=O)N[C@H]1CCc2cc(OC)c(OC)c(OC)c2-c2ccc(SC)c(=O)cc21
inactive: NCI-H460 28.4 µM | A498 11.5 µM | OVCAR-4 > 100 µM | UACC-62 40 µM | CAKI-1 46.7 µM | U-251 24.2 µM | ACHN 63.8 µM | IGROV-1 49.1 µM | HOP-92 34.4 µM | NCI-H226 2.52 µM | HCC 2998 25.5 µM | XF498 20.8 µM | UO-31 48 µM | K562 30.5 µM | TK-10 40.1 µM | OVCAR-5 > 100 µM | DMS-273 27.9 µM | HOP-62 16.1 µM | HT-29 30.6 µM | 786-0 40.2 µM | MOLT-4 27 µM | EKVX 29.1 µM | OVCAR-8 26.5 µM | SF-268 59.7 µM | SNB-19 39.1 µM | SW-620 30.3 µM | M19-MEL 50 µM | SK-MEL-5 28.4 µM | SR 23.5 µM | SK-OV-3 7.19 µM | Malme-3M 51.5 µM | M14 27.5 µM | KM12 35.2 µM | OVCAR-3 24.2 µM | CCRF-CEM 30.1 µM | SNB-75 20.2 µM | SF-539 17.6 µM | NCI-H522 13.4 µM | SK-MEL-28 84.5 µM | SNB-78 41.9 µM | KM-20L2 18.7 µM | LXFL 529 41.9 µM | SF-295 34.6 µM | A549 26.4 µM | SN12C 28.2 µM | COLO 205 12.8 µM | NCI-H23 25.5 µM | RXF 631 14.1 µM | UACC-257 39.2 µM | HL-60 17.1 µM | HCT-116 26 µM
26.4 µM: HCT-15

CC[C@@]1(O)C[C@H](OC2CC(N(C)C)C(OC3CC(O)C(OC4CCC(=O)C(C)O4)C(C)O3)C(C)O2)c2c(cc3c(c2O)C(=O)c2c(O)cccc2C3=O)[C@H]1C(=O)OC (stereo not given in full)
active: RPMI-8226 0.0243 µM | HOP-18 0.0458 µM | CCRF-CEM 0.0229 µM | SK-MEL-28 0.0443 µM | KM-20L2 0.0247 µM | LXFL 529 0.00776 µM | DLD-1 0.0238 µM | RXF 631 0.00711 µM | HL-60 0.0231 µM

O=C1CCC2(c3ccccc3)Nc3cc(Cl)ccc3N12 (stereo not given)
35.2 µM: HCT-15
inactive: NCI-H460 32.7 µM | A498 35.4 µM | OVCAR-4 35.2 µM | UACC-62 19 µM | CAKI-1 21 µM | LOX IMVI 33 µM | RPMI-8226 22 µM | U-251 48 µM | ACHN 26.9 µM | IGROV-1 41.2 µM | HOP-92 13.7 µM | NCI-H226 19.2 µM | HCC 2998 42.1 µM | XF498 19.7 µM | UO-31 25.5 µM | K562 32 µM | TK-10 39.2 µM | OVCAR-5 58.9 µM | HOP-62 25.4 µM | HT-29 31.7 µM | RXF 393 28.4 µM | 786-0 35.6 µM | MOLT-4 21.6 µM | EKVX 33.3 µM | OVCAR-8 38.6 µM | SF-268 40.8 µM | SW-620 41.5 µM | M19-MEL 30.8 µM | SK-MEL-5 16.9 µM | SK-OV-3 43.8 µM | Malme-3M 25.8 µM | DMS-114 21.4 µM | M14 30.1 µM | KM12 27.6 µM | OVCAR-3 21.8 µM | CCRF-CEM 25.1 µM | SNB-75 16 µM | SF-539 41.3 µM | NCI-H522 26.9 µM | SK-MEL-28 36.2 µM | SNB-78 31.7 µM | KM-20L2 30 µM | LXFL 529 31.4 µM | SF-295 27.4 µM | SK-MEL-2 22.2 µM | A549 31 µM | SN12C 35.1 µM | COLO 205 17.7 µM | NCI-H23 22.3 µM | DLD-1 34.9 µM | RXF 631 47.5 µM | UACC-257 24 µM | HL-60 20.8 µM
